Reference: patent US6517856B1, “Insecticide resistance assay” (priority 1998, dated 2003)
Several values for one entry are separate records, joined by “and”; a condition that tells them apart may be missing. Equal entries are not always repeated.

Experiments:
[1] = system: tobacco budworm (H. virescens); assay: Feeding disruption assay, CryIAc in Trypan Blue diet (fresh diet); assay type: in vivo, Heliothis virescens
Procedure: The blue diet used in the feeding disruption bioassay is an agar based insect meal containing 20 mg of Trypan Blue (Direct Blue 14; Matheson Coleman & Bell, Norwood, Ohio) per 100 ml of standard artificial diet, and containing different concentrations of CryIAc (MVP, Mycogen). Larvae feeding on this colored diet produced blue feces which were easily distinguished by observation from feces derived from other food sources. Assays were conducted in 1-ounce clear plastic cups (Solo Cup Company, Urbana, Ill.; approximately […] in diameter and ¾ inches high) fitted with white cardboard tops, which are routinely used for insect rearing in the inventors' laboratories. The clear plastic allowed for the observation of blue feces without opening the container.
Third instars from Wake (Bt susceptible), YHD2 (Bt resistant), and YHD2×Wake hybrid strains of the tobacco budworm (H. virescens) were used. Instars weighed 30±5 mg and were reared either on standard artificial diet or cotton plants. Instars were starved for one hour and then transferred to clear plastic assay cups, one larvae per cup. The starvation treatment synchronized the beginning of feeding between individuals once transferred to the dye-containing diet. The effect of different concentrations of CryIAc (0 to 0.064 μg CryIAc/ml diet) on the production of blue feces was examined for one to 24 hours at 27±1° C. and […] (light:dark). Studies were conducted in triplicate with 15 larvae per replicate. Once a diagnostic concentration and optimum assay time were identified from these experiments, the accuracy of resistance detection was investigated for individual resistant and susceptible neonates of H. virescens. These experiments were duplicated for 25 resistant and 25 susceptible budworms from two different budworm generations.
The diagnostic concentration for resistance detection was also investigated for its ability to distinguish Wake susceptible H. virescens from H. zea. In addition, dose response studies were conducted to identify a concentration of Bt that would distinguish resistant YHD2 neonates of H. virescens from H. zea. Dose response studies were duplicated for 25 resistant (HD2) tobacco budworms and 25 bollworms from two generations at different doses of Bt ranging from 0 to 1000 μg CryIAc/ml of blue diet.

[2] = system: Heliothis virescens neonates; assay: Feeding disruption bioassay on meal pads and diet cylinders (toxin incorporation, diet comparison); assay type: in vivo; conditions: for percentage of the population producing >5 fecal pellets: Hv Washington neonates, 0.04 μg MVP per ml diet, 24 h
Procedure: Feeding disruption bioassays follow the method Examples 1-9. Bioassay diets contain 20 mg of the dye Trypan Blue (Direct Blue 14; Matheson Coleman and Bell, Norwood, Ohio) per 100 ml of diet. The blue dye serves as a marker of fecal origin, with only larvae feeding on blue diet producing blue feces. All bioassay results were taken from two replicates consisting of 24 insects per replicate. Dead larvae (defined as no movement for 30 s after prodding with a blunt probe) at the assay endpoint (24 h) were discarded and not included in the results in order to avoid interpreting mortality as a non-feeding assay response. Assays were conducted in clear 8-well microtiter plate strips (Nalge Nunc Int., Napersville, Ill.). Strip caps were separated with a scalpel to allow individual removal, facilitating observation of individual wells while not allowing neighboring larvae to escape. A #3 insect pin was used to puncture each cap twice, which permitted ventilation in order to reduce condensation within wells and provide larvae with air.
The original bioassay method was modified by substituting 100 μl meal pads (diameter=6 mm) for fresh diets. Except where noted, toxins were incorporated into the meal pads by hydrating with aqueous solutions containing appropriate concentrations of the B. thuringiensis CryIAc formulation MVP (Mycogen, San Diego, Calif.). Serial MVP dilutions were used in each assay, with dilution series for each replicate of a treatment made on different days. Hydration of 100 μl meal pads was by pipetting two 40 μl aliquots (water volume=80 μl) in order to prevent pads from floating in the wells, as discussed above. Lyophilized diet cylinders (400 μl) were hydrated to original wet weight as previously described with an aqueous MVP dilution, resulting in a final concentration of 0.04 μg MVP per ml diet. After 1 h, cylinders were divided into 3 sections with a scalpel and individual sections were placed in 8-well microtiter strips, 1 section per well. The feeding disruption bioassay was then used to assess the diffusion of MVP through the cylinder using one larva per cylinder section. All bioassay concentrations reported are final diet concentrations, and not those of solutions used to hydrate meal pads.

H. virescens [3] = conditions: Gould et al. 1995; cited from earlier work
H. virescens [4] = assay: Seven day mortality assay on neonates, CryIAc in artificial diet
Procedure: Insects were reared in the laboratory at 27±1° C. with a 14:10 (light:dark) cycle on a standard artificial diet (Gould et al., 1995; Rose et al., 1995). The Wake strain of H. virescens used was originally collected in 1986 from tobacco in Wake county, N.C. The YHD2 strain was originally collected as eggs from seven tobacco fields in Yadkin County, N.C., in July of 1988. The YHD2 larvae were reared each generation for about seven days from egg hatch on 1000 μg of Bt toxin CryIAc (MVP, commercial grade, >98.0% δ endotoxin, Mycogen Corporation, San Diego) per ml of artificial diet and then transferred to insecticide-free diet for the remainder of development.
Mortality data were analyzed using probit analysis (PROC PROBIT, SAS 1991).

[5] = Wake third instars, 0.008 μg/ml, 24 hours
[6] = Wake third instars, 0.032 μg CryIAc/ml diet, 24 hours
[7] = Wake third instars, 0.032 μg CryIAc/ml, 4 hours
[8] = Wake third instars, 0.032 μg CryIAc/ml, 8 hours
[9] = YHD2 third instars, 0.008 μg/ml, 24 hours
[10] = YHD2 third instars, 0.032 μg CryIAc/ml diet, 24 hours
[11] = YHD2 third instars, 0.032 μg CryIAc/ml, 4 hours
[12] = YHD2 third instars, 0.032 μg CryIAc/ml, 8 hours
[13] = YHD2×Wake hybrid third instars, 0.032 μg/ml, 24 hours

Substance: CryIAc: Bacillus thuringiensis CryIAc δ-endotoxin, commercial formulation MVP (Mycogen), >98.0% δ endotoxin
- blue fecal pellets per larva [1, 5]: 4 /larva
- total blue fecal pellets [1, 5]: 63 fecal pellets/15 larvae
- blue fecal pellets per larva [1, 6]: 0.8 /larva
- total blue fecal pellets [1, 6]: 12 fecal pellets/15 larvae
- blue fecal pellets per larva [1, 7]: 0.1 /larva
- total blue fecal pellets [1, 7]: 1.6 fecal pellets/15 larvae
- blue fecal pellets per larva [1, 8]: 0.3 /larva
- total blue fecal pellets [1, 8]: 5 fecal pellets/15 larvae
- percentage of larvae that had produced blue feces ([1]; Wake third instars, 0.032 μg CryIAc/ml, after 14 hours, ±1 SE): 2.2±3.9%
- minimum fecal production by any individual ([1]; YHD2 neonates, 500 μg CryIAc/ml blue diet, 24 hours): five
- fecal pellets produced per 15 larvae ([1]; YHD2 third instars reared on cotton, 0.032 μg CryIAc/ml Blue diet, 24 hours): > 140 fecal pellets per 15 larvae
- blue fecal pellets per larva [1, 9]: 53 /larva
- total blue fecal pellets [1, 9]: 800 fecal pellets/15 larvae
- blue fecal pellets per larva [1, 10]: 31 /larva
- total blue fecal pellets [1, 10]: 470 fecal pellets/15 larvae
- blue fecal pellets per larva [1, 11]: 3 /larva
- total blue fecal pellets [1, 11]: 46 fecal pellets/15 larvae
- blue fecal pellets per larva [1, 12]: 9 /larva
- total blue fecal pellets [1, 12]: 129 fecal pellets/15 larvae
- percentage producing one or more blue fecal pellets ([1]; YHD2 third instars, 0.032 μg CryIAc/ml, in 5 hours, ±1 SE): 85±3.9%
- percentage producing one or more blue fecal pellets ([1]; YHD2 third instars, 0.032 μg CryIAc/ml, in 9 hours, ±1 SE): 95±3.9%
- percentage producing one or more blue fecal pellets ([1]; YHD2 third instars, 0.032 μg CryIAc/ml, in 14 hours, ±1 SE): 100.0±0.0%
- blue fecal pellets per larva [1, 13]: 5 /larva
- total blue fecal pellets [1, 13]: 68 fecal pellets/15 larvae
- percentage producing 0-2 fecal pellets in 24 h ([1]; laboratory susceptible H. virescens strain, 0.032 μg MVP per ml diet): 88.0%
- number of H. virescens producing six blue fecal pellets (the maximum) ([1]; susceptible (Wake) neonates, 0.032 μg CryIAc/ml diet, 24 hour): 1 out of 50
- blue feces production ([1]; susceptible (Wake) third instars reared on cotton, 0.032 μg CryIAc/ml Blue diet): Essentially no blue feces were produced
- percentage of the population producing >5 fecal pellets ([2]; 100 μl meal pads): 10.4%
- percentage of the population producing >5 fecal pellets ([2]; 400 μl cylinder, bottom section): 6.4%
- percentage of the population producing >5 fecal pellets ([2]; 400 μl cylinder, middle section): 4.2%
- percentage of the population producing >5 fecal pellets ([2]; 400 μl cylinder, top section): 6.3%
- stability in diet during the lyophilization process ([2]; judged by Hv 97 bioassay, 0.04 μg MVP per ml diet incorporated before lyophilization): apparently stable
- resistance of YHD2 strain to CryIAc compared to the Wake strain (H. virescens [3]): > 2000 fold
- LC50 (H. virescens [4]; Wake strain, neonates, seven day mortality): 0.0017 μg CryIAc/ml diet
- LC50 (H. virescens [4]; YHD2(female)×Wake(male) hybrid F1 larvae): 0.129 μg CryIAc/ml diet
- LC50 (H. virescens [4]; YHD2 strain, neonates, seven day mortality): 2952 μg CryIAc/ml diet and 2952.0 μg CryIAc/ml diet
